Measured values: patent publication US20240409536A1, “COMPOUNDS AND METHODS FOR MODULATING SPLICING” (REMIX THERAPEUTICS INC., priority 2021, published 2024)
Structures can show the parent of a compound that is named as a salt.

Columns and labels:
MYB mRNA = assay: Splicing RT-qPCR assay, MYB canonical (CJ) and alternative (AJ) junction mRNA; assay type: cell-based; settings: Homo sapiens, A673 or K562 cells, 24 hours; for IC50: decrease in canonical junction mRNA; for AC50: increase in alternative junction mRNA
Outline: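 RT-qPCR read-out: CJ and AJ junction isoforms quantified from cell lysates, normalized to housekeeping GAPDH/GUSB (K562) or PPIA (A673). Cells had 24 h compound exposure, 11-point 3-fold series from 10 uM final, ≤0.25% DMSO.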

HiBiT-tagged HTT protein = assay: HiBiT protein abundance assay, HTT (K562 HiBiT knock-in cells); assay type: cell-based, human; settings: 24 hours
Outline: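 Luminescent readout of HiBiT-tagged endogenous protein after lysis, following 24 h compound exposure of knock-in K562 lines at 37 °C. Ten 3-fold concentrations from 10 μM final, DMSO ≤0.25%. Four-parameter logistic fit of normalized response gives concentration halving abundance (IC50).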

SMILES | IC50 (MYB mRNA) | AC50 (MYB mRNA) | IC50 (HiBiT-tagged HTT protein)
Cc1c(O)c(NC(=O)c2ccc(N3CCNCC3)c3ccnnc23)cc2cn(C)nc12 [Compound 181, N-(6-hydroxy-2,7-dimethylindazol-5-yl)-5-(piperazin-1-yl)cinnoline-8-carboxamide] | 0.1 to 1 µM | 1 to 10 µM | > 10 µM
Cc1cn2cc(NC(=O)c3ccc(N4C[C@@H](C)NC5(CC5)C4)c4nccnc34)cc(F)c2n1 [Compound 376] | 0.1 to 1 µM | 0.1 to 1 µM | 1 to 10 µM
Cc1cn2cc(NC(=O)c3ccc(N4CCC(N(C)C)C4)c4ccnnc34)cc(F)c2n1 (stereo not drawn) [Compound 134] | 0.1 to 1 µM | 0.1 to 1 µM | 1 to 10 µM
Cc1cn2cc(NC(=O)c3ccc(N4CCNCC4)c4ccnnc34)cc(C)c2n1 [Compound 125] | 0.1 to 1 µM | 0.1 to 1 µM | 1 to 10 µM
Cc1cn2cc(NC(=O)c3ccc(N4CCNCC4)c4ccnnc34)[nH]c(=O)c2n1 [Compound 177, N-{2-methyl-8-oxo-7H-imidazo[1,2-a]pyrazin-6-yl}-5-(piperazin-1-yl)cinnoline-8-carboxamide trifluoroacetic acid salt] | 0.1 to 1 µM | 0.1 to 1 µM | 0.1 to 1 µM
Cc1cn2cc(NC(=O)c3ccc(N4CCC5(CCN5)CC4)c4nccnc34)cc(F)c2n1 [Compound 189, 8-{1,7-diazaspiro[3.5]nonan-7-yl}-N-{8-fluoro-2-methylimidazo[1,2-a]pyridin-6-yl}quinoxaline-5-carboxamide] | < 0.1 µM | 0.1 to 1 µM | 0.1 to 1 µM
COCCOc1cc2c(N3CCNCC3)ccc(C(=O)Nc3cc(F)c4nc(C)cn4c3)c2nn1 [Compound 199, N-{8-fluoro-2-methylimidazo[1,2-a]pyridin-6-yl}-3-(2-methoxyethoxy)-5-(piperazin-1-yl)cinnoline-8-carboxamide] | 0.1 to 1 µM | < 0.1 µM | 1 to 10 µM
Cc1cn2cc(NC(=O)c3ccc(N4CCNC(C)C4)c4ccnnc34)cc(F)c2n1 (stereo not drawn) [Compound 128] | < 0.1 µM | < 0.1 µM | 0.1 to 1 µM
Cc1cn2cc(NC(=O)c3ccc(N4CCC(NC(C)(C)C)CC4)c4ccnnc34)cc(F)c2n1 [Compound 138] | 0.1 to 1 µM | 0.1 to 1 µM | 1 to 10 µM
Cc1cnc2c(N3CCNCC3)ccc(C(=O)Nc3cc(F)c4nc(C)cn4c3)c2n1 [Compound 197, N-{8-fluoro-2-methylimidazo[1,2-a]pyridin-6-yl}-3-methyl-8-(piperazin-1-yl)quinoxaline-5-carboxamide; trifluoroacetic acid] | 0.1 to 1 µM | 0.1 to 1 µM | 0.1 to 1 µM
CNC1CCN(c2ccc(C(=O)Nc3cc(F)c4nc(C)cn4c3)c3nc(C)ccc23)C1 (stereo not drawn) [Compound 196, N-{8-fluoro-2-methylimidazo[1,2-a]pyridin-6-yl}-2-methyl-5-[3-(methylamino)pyrrolidin-1-yl]quinoline-8-carboxamide 2,2,2-trifluoroacetate] | 0.1 to 1 µM | 0.1 to 1 µM | 1 to 10 µM
Cc1cn2nc(NC(=O)c3ccc(N4CCNCC4)c4ccnnc34)cc2c(C)n1 [Compound 123] | 1 to 10 µM | 1 to 10 µM | 1 to 10 µM
